Measured values reported in US12559474B2, “Triazine derivatives having virus replication inhibitory activity and pharmaceutical composition comprising the same” (priority 2021, dated 2026).
Read-outs that look alike come from different tables or passages of the source.

Molecular target: SARS-CoV-2 3CL protease (Severe acute respiratory syndrome coronavirus 2, UniProt P0DTD1)
Assay: biochemical
[1] = 50% SARS-CoV-2 3CL protease inhibitory concentration, given as class symbols, read-out: IC50

Row | Compound | IC50 (IC50) [nM] | IC50 [1] [nM]
1 | Cn1cnc(Cn2c(=O)nc(Nc3cc4cn(CCN)nc4cc3Cl)n(Cc3cc(Cl)c(F)cc3F)c2=O)n1 [II-0530] | < 100 | 
2 | Cn1cnc(Cn2c(=O)nc(Nc3cc4cn([C@H]5CC[C@H](N)CC5)nc4cc3Cl)n(Cc3cc(Cl)c(F)cc3F)c2=O)n1 [II-0531] | < 100 | 
3 | Cn1cnc(Cn2c(=O)nc(Nc3cc4cn(C5CCNCC5)nc4cc3Cl)n(Cc3cc(Cl)c(F)cc3F)c2=O)n1 [II-0532] | < 100 | 
4 | Cn1cnc(Cn2c(=O)nc(Nc3cc4cn(CC(F)F)nc4cc3Cl)n(Cc3cc(Cl)c(F)cn3)c2=O)n1 [II-0540] | < 100 | 
5 | Cn1cnc(Cn2c(=O)nc(Nc3cc4cn(C)nc4cc3Cl)n(Cc3cc(Cl)c(F)cn3)c2=O)n1 [II-0542] | < 100 | 
6 | Cn1cnc(Cn2c(=O)nc(Nc3cc4cn(CC(F)F)nc4cc3Cl)n(Cc3ccc(F)c(C#N)c3)c2=O)n1 [II-0549] | < 100 | 
7 | Cn1cnc(Cn2c(=O)nc(Nc3cc4cn(CC5(N)CC5)nc4cc3Cl)n(Cc3cc(Cl)c(F)cc3F)c2=O)n1 [II-0557] |  | < 100
8 | Cn1cnc(Cn2c(=O)nc(Nc3cc4cn(CC5(N)CC5)nc4cc3Cl)n(Cc3cc(F)c(F)c(Cl)c3)c2=O)n1 [II-0558] |  | < 100
9 | CN(C)C(=O)CCn1cc2cc(Nc3nc(=O)n(Cc4ncn(C)n4)c(=O)n3Cc3cc(F)c(F)c(Cl)c3)c(Cl)cc2n1 [II-0561] | < 100 | 
10 | Cc1cncc(-n2c(=O)nc(Nc3ccc(N=S(C)(C)=O)cc3Cl)n(Cc3ccc(F)c(C#N)c3)c2=O)c1 [II-0575] | < 100 | 
11 | CC(=O)Nc1ccc(C#N)cc1Cn1c(Nc2cc3cn(C)nc3cc2Cl)nc(=O)n(-c2cncc(C)c2)c1=O [II-0594] | 270 | 
12 | CNc1nc2cc(Cl)c(Nc3nc(=O)n(Cc4ncn(C)n4)c(=O)n3Cc3ccc(F)c(C#N)c3)cc2s1 [II-0603] | < 100 | 
13 | Cn1cnc(Cn2c(=O)nc(Nc3cc4cn(C)nc4cc3Cl)n(CC3CCCC3)c2=O)n1 [II-0605] | 1000 to 10000 | 
14 | Cn1cnc(Cn2c(=O)nc(Nc3cc4cn(C)nc4cc3Cl)n(CC3CCCCC3)c2=O)n1 [II-0606] | 100 to 1000 | 
15 | Cn1cnc(Cn2c(=O)nc(Nc3cc4cn(C)nc4cc3Cl)n(CC3CCC(F)(F)CC3)c2=O)n1 [II-0607] | 100 to 1000 | 
16 | CC(=O)Nc1snc2cc(Cl)c(Nc3nc(=O)n(Cc4ncn(C)n4)c(=O)n3Cc3cc(Cl)c(F)cc3F)cc12 [II-0610] | < 100 | 
17 | Cc1cncc(-n2c(=O)nc(Nc3cc4cn(CCN)nc4cc3Cl)n(Cc3cc(Cl)ccc3Cl)c2=O)c1 [II-0611] | < 100 | 
18 | CNc1cncc(-n2c(=O)nc(Nc3ccc4c(c3)CCO4)n(Cc3cc(F)c(F)cc3F)c2=O)c1 [II-0612] | < 100 | 
19 | CNc1cncc(-n2c(=O)nc(Nc3cc4c(cc3Cl)OCC4)n(Cc3cc(F)c(F)cc3F)c2=O)c1 [II-0613] | < 100 | 
20 | Cc1cncc(-n2c(=O)nc(Nc3ccc(N=S4(=O)CCCC4)cc3C(F)(F)F)n(Cc3cc(Cl)ccc3C)c2=O)c1 [II-0614] | < 100 | 
21 | Cc1cncc(-n2c(=O)nc(Nc3ccc(N=S4(=O)CCCC4)c(Cl)c3)n(Cc3cc(Cl)ccc3C)c2=O)c1 [II-0615] | < 100 | 
22 | Cc1cncc(-n2c(=O)nc(Nc3ccc(N=S4(=O)CCCC4)cc3F)n(Cc3cc(Cl)ccc3C)c2=O)c1 [II-0616] | < 100 | 
23 | Cc1cncc(-n2c(=O)nc(Nc3ccc(N=S4(=O)CCCC4)c(Cl)c3Cl)n(Cc3cc(Cl)ccc3C)c2=O)c1 [II-0617] | < 100 | 
24 | Cc1cncc(-n2c(=O)nc(Nc3ccc(N=S4(=O)CCCC4)cc3)n(Cc3cc(Cl)ccc3C)c2=O)c1 [II-0618] | < 100 | 
25 | Cc1cncc(-n2c(=O)nc(Nc3cc(Cl)c(N=S4(=O)CCCC4)cc3Cl)n(Cc3cc(Cl)ccc3C)c2=O)c1 [II-0619] | < 100 | 

Row | Compound | IC50 (IC50) [nM] | IC50 [1] [nM]
26 | Cc1cncc(-n2c(=O)nc(Nc3cc(F)c(N=S4(=O)CCCC4)cc3Cl)n(Cc3cc(Cl)ccc3C)c2=O)c1 [II-0620] | < 100 | 
27 | CCS(=O)(CC)=Nc1ccc(Nc2nc(=O)n(-c3cncc(C)c3)c(=O)n2Cc2cc(Cl)ccc2C)c(Cl)c1 [II-0621] | < 100 | 
28 | O=c1[nH]cccc1Cn1c(=O)nc(NC23CC(Nc4nc(Cl)cc(Cl)n4)(C2)C3)n(Cc2cc(F)c(F)c(F)c2)c1=O [II-0622] | < 100 | 
29 | Cc1cncc(-n2c(=O)nc(Nc3cc(C)c(N=S4(=O)CCCC4)cc3Cl)n(Cc3cc(Cl)ccc3C)c2=O)c1 [II-0623] | < 100 | 
30 | Cc1cncc(-n2c(=O)nc(Nc3ccc(N=S4(=O)CCCC4)cc3Cl)n(Cc3cc(Cl)ccc3C)c2=O)c1 [II-0624] | < 100 | 
31 | Cc1cncc(-n2c(=O)nc(Nc3ccc(N=S(C)(C)=O)cc3Cl)n(Cc3cc(Cl)ccc3C)c2=O)c1 [II-0625] | < 100 | 
32 | COc1cc(OC)nc(NC23CC(Nc4nc(=O)n(CC5=CC=CNC5C)c(=O)n4Cc4cc(F)c(F)c(F)c4)(C2)C3)n1 (centres unmarked) [II-0626] | < 100 | 
33 | Cc1cc(C)nc(NC23CC(Nc4nc(=O)n(Cc5ccc[nH]c5=O)c(=O)n4Cc4cc(F)c(F)c(F)c4)(C2)C3)n1 [II-0627] | < 100 | 
34 | Cc1cncc(-n2c(=O)nc(Nc3cc4cn([C@H]5CC[C@H](N)CC5)nc4cc3Cl)n(Cc3cc(Cl)ccc3Cl)c2=O)c1 [II-0628] | < 100 | 
35 | Cc1cncc(-n2c(=O)nc(Nc3cc(C)c(N=S(C)(C)=O)cc3Cl)n(Cc3cc(Cl)ccc3C)c2=O)c1 [II-0629] | < 100 | 
36 | Cc1ccc(Cl)cc1Cn1c(NC23CC(Nc4ncccn4)(C2)C3)nc(=O)n(Cc2ccncc2C)c1=O [II-0630] | < 100 | 
37 | Cc1cncc(-n2c(=O)nc(Nc3ccc(N=S(C)(C)=O)cc3C)n(Cc3cc(Cl)ccc3C)c2=O)c1 [II-0631] | < 100 | 
38 | Cc1cncc(-n2c(=O)nc(Nc3ccc(N=S(C)(C)=O)cc3OC(F)(F)F)n(Cc3cc(Cl)ccc3C)c2=O)c1 [II-0632] | < 100 | 
39 | COc1cc(N=S(C)(C)=O)ccc1Nc1nc(=O)n(-c2cncc(C)c2)c(=O)n1Cc1cc(Cl)ccc1C [II-0633] | < 100 | 
40 | Cn1cnc(Cn2c(=O)nc(Nc3cc4cn(C)nc4cc3Cl)n(Cc3cc(F)c(F)cc3C(F)(F)F)c2=O)n1 [II-0634] | < 100 | 
41 | Cn1cnc(Cn2c(=O)nc(Nc3cc4cn(C)nc4cc3Cl)n(Cc3ccc(F)c(F)c3)c2=O)n1 [II-0635] | < 100 | 
42 | CCOC(=O)c1cc(F)c(F)cc1Cn1c(Nc2cc3cn(C)nc3cc2Cl)nc(=O)n(Cc2ncn(C)n2)c1=O [II-0636] | < 100 | 
43 | Cc1cnn(Cc2cc(F)c(F)cc2Cn2c(Nc3cc4cn(C)nc4cc3Cl)nc(=O)n(Cc3ncn(C)n3)c2=O)c1 [II-0637] | < 100 | 
44 | CCOc1c(F)cc(F)cc1Cn1c(Nc2cc3cn(C)nc3cc2Cl)nc(=O)n(Cc2ncn(C)n2)c1=O [II-0638] | < 100 | 
45 | CCc1c(F)cc(Cl)cc1Cn1c(Nc2cc3cn(C)nc3cc2Cl)nc(=O)n(Cc2ncn(C)n2)c1=O [II-0639] | < 100 | 
46 | Cn1cnc(Cn2c(=O)nc(Nc3cc4cn(C)nc4cc3Cl)n(Cc3cc(Cl)cc(F)c3Cl)c2=O)n1 [II-0640] | < 100 | 
47 | Cn1cnc(Cn2c(=O)nc(Nc3cc4cn(C)nc4cc3Cl)n(Cc3cc(Cl)cc(F)c3F)c2=O)n1 [II-0641] | < 100 | 
48 | Cn1cnc(Cn2c(=O)nc(Nc3cc4cn(C)nc4cc3Cl)n(Cc3cc(Cl)cc(F)c3OCCO)c2=O)n1 [II-0642] | < 100 | 
49 | CNC(=O)CCn1c(=O)nc(Nc2cc3cn(C)nc3cc2Cl)n(Cc2cc(F)c(F)cc2F)c1=O [II-0643] | 1000 | 
50 | COc1ccc(Nc2nc(=O)n(Cc3ncn(C)n3)c(=O)n2C2(c3ccc(F)c(F)c3)CC2)cc1 [II-0644] | 3500 | 
